According to PubChem BioAssay (NCI):
Several values for one entry are separate records, joined by “and”; a condition that tells them apart may be missing. Identical values can stand only once.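 Method: 48-hour compound exposure of cells in 96-well plates, five concentrations, linear interpolation of endpoints. GI50 marks 50% less growth. TGI: total growth inhibition.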

Each molecule was assayed on SNB-75 CNS (assay: NCI tumour cell line growth inhibition, 48 h).
Work on `Cc1ccc2c(C)c3c(ccc4ccccc43)c[n+]2c1` yielded a GI50 of 11.9 µM and a TGI of 40.3 µM.
Work on `Cc1ccc(CN2CCC(C(=O)Nc3ccc(-c4cc5ccccc5[nH]4)cc3)CC2)o1` yielded a GI50 of 12.7 µM and a TGI of 33.1 µM.
With `C=CC(=O)Nc1cc(Nc2ncc(C(=O)OC(C)C)c(-c3cn(C)c4ccccc34)n2)c(OC)cc1N(C)CCN(C)C` the GI50 was 1.93 µM and the TGI was 10.3 µM.
With `O=C(Nc1ccc(F)cc1)Nc1ccc(Cl)c([N+](=O)[O-])c1` the GI50 was 5.93 µM and the TGI was over 100 µM.
`Fc1[nH]nc2ccc([C@@H]3Nc4ccc5[nH]ncc5c4[C@H]4C5CCC(C5)[C@@H]34)cc12` (stereo not given in full) gave a GI50 of 0.503 µM and a TGI of 3.93 µM.
`Nc1ccccc1C#C/C=C\C#Cc1ccccc1OC(F)(F)F` gave a GI50 of 2.47 µM and a TGI of 7.85 µM.
`Cc1ccc(NC(=O)Nc2ccc(-c3cccnc3)cc2N2CCC(CO)CC2)cc1` gave a GI50 of 1.26 µM and a TGI of 5.03 µM.
`Cc1cnc(NCCCN(C)C)c2c1[nH]c1ccc3cc(O)ccc3c12` gave a TGI of 1.87 µM.
`Fc1ccc(NC(=S)SCc2ccc3c(c2)OCO3)cc1F` gave a TGI of 66.8 µM.

These molecules were tested on TK-10 renal (assay: NCI tumour cell line growth inhibition, 48 h).
`O=C(Nc1ccccc1)c1c(O)[nH]c(=S)[nH]c1=O` showed a TGI of 125 µM.
`OC1CSSC1Cn1cnc2c(Nc3ccc(OCc4cccc(F)c4)c(Cl)c3)ncnc21` (stereo not given) gave a GI50 of 1.15 µM and a TGI of 5.01 µM.
`COc1cnc2c(c1)C(=O)c1c-2n(CCCN2CCOCC2)c(=O)c2cc(F)ccc12` showed a GI50 of 0.489 µM and a TGI of 16.3 µM.
Molecule `COc1cccc(-c2cc(-c3cccc(NS(C)(=O)=O)c3)nc(N)c2C#N)c1O` has a GI50 of 0.5 µM and a TGI of over 100 µM.
Molecule `NC(N)=NS(=O)(=O)c1ccc(Nc2c3ccccc3nc3c(C(=O)NCCO)cccc23)cc1` has a GI50 of 18.7 µM.
In the case of `COc1cccc(C2c3cc4c(cc3OC(C)(N3CCCC3)C2C)OCO4)c1O` (stereo not given), the TGI is reported as 77.1 µM.
For `COc1cc(/C=N\NC(=O)CN2CCN(c3cc4c(cc3F)c(=O)c(C(=O)N/N=C/c3cc(OC)c(OC)c(OC)c3)cn4C3CC3)CC2)cc(OC)c1OC`, the GI50 was over 100 µM and the TGI was over 100 µM.
`OCCN(CCO)c1ncnc2c1ncn2Cc1ccc(CCl)cc1` showed a GI50 of 17.1 µM and a TGI of 33.4 µM.
`Cc1ccc2c(C)c3c(ccc4ccccc43)c[n+]2c1` was tested, and the GI50 was 68.3 µM and the TGI was over 100 µM.
Molecule `Cc1ccc(CN2CCC(C(=O)Nc3ccc(-c4cc5ccccc5[nH]4)cc3)CC2)o1` has a GI50 of over 100 µM and a TGI of over 100 µM.
Molecule `C=CC(=O)Nc1cc(Nc2ncc(C(=O)OC(C)C)c(-c3cn(C)c4ccccc34)n2)c(OC)cc1N(C)CCN(C)C` has a GI50 of under 0.01 µM and a TGI of 5.19 µM.
Work on `O=C(Nc1ccc(F)cc1)Nc1ccc(Cl)c([N+](=O)[O-])c1` yielded a GI50 of 4.1 µM and a TGI of 20.1 µM.
`Fc1[nH]nc2ccc([C@@H]3Nc4ccc5[nH]ncc5c4[C@H]4C5CCC(C5)[C@@H]34)cc12` (stereo not given in full) was tested, and the GI50 was 3.51 µM and the TGI was 15.5 µM.
With `Nc1ccccc1C#C/C=C\C#Cc1ccccc1OC(F)(F)F` the GI50 was 10.6 µM and the TGI was 43.7 µM.
Work on `Cc1ccc(NC(=O)Nc2ccc(-c3cccnc3)cc2N2CCC(CO)CC2)cc1` yielded a GI50 of 2.04 µM and a TGI of 5.54 µM.
In the case of `Cc1cnc(NCCCN(C)C)c2c1[nH]c1ccc3cc(O)ccc3c12`, the TGI is reported as 15.8 µM.
For `Fc1ccc(NC(=S)SCc2ccc3c(c2)OCO3)cc1F`, the TGI was over 100 µM.

The molecules below were run on U251 CNS (assay: NCI tumour cell line growth inhibition, 48 h).
In the case of `O=C(Nc1ccccc1)c1c(O)[nH]c(=S)[nH]c1=O`, the GI50 is reported as 66.5 µM and the TGI is reported as 109 µM and > 250 µM.
`OC1CSSC1Cn1cnc2c(Nc3ccc(OCc4cccc(F)c4)c(Cl)c3)ncnc21` (stereo not given) showed a GI50 of 0.712 µM and a TGI of 1.43 µM.
With `COc1cnc2c(c1)C(=O)c1c-2n(CCCN2CCOCC2)c(=O)c2cc(F)ccc12` the GI50 was 0.0936 µM and the TGI was 0.563 µM.
With `COc1cccc(-c2cc(-c3cccc(NS(C)(=O)=O)c3)nc(N)c2C#N)c1O` the GI50 was 0.127 µM and the TGI was over 100 µM.
For `NC(N)=NS(=O)(=O)c1ccc(Nc2c3ccccc3nc3c(C(=O)NCCO)cccc23)cc1`, the GI50 was 26 µM.
Molecule `COc1cccc(C2c3cc4c(cc3OC(C)(N3CCCC3)C2C)OCO4)c1O` (stereo not given) has a TGI of 53.8 µM.
`COc1cc(/C=N\NC(=O)CN2CCN(c3cc4c(cc3F)c(=O)c(C(=O)N/N=C/c3cc(OC)c(OC)c(OC)c3)cn4C3CC3)CC2)cc(OC)c1OC` was tested, and the GI50 was 0.328 µM and the TGI was over 100 µM.
`OCCN(CCO)c1ncnc2c1ncn2Cc1ccc(CCl)cc1` gave a GI50 of 15.7 µM and a TGI of 29.8 µM.
Molecule `Cc1ccc2c(C)c3c(ccc4ccccc43)c[n+]2c1` has a GI50 of 2.8 µM and a TGI of 18.6 µM.
`Cc1ccc(CN2CCC(C(=O)Nc3ccc(-c4cc5ccccc5[nH]4)cc3)CC2)o1` gave a GI50 of 21 µM and a TGI of over 100 µM.
In the case of `C=CC(=O)Nc1cc(Nc2ncc(C(=O)OC(C)C)c(-c3cn(C)c4ccccc34)n2)c(OC)cc1N(C)CCN(C)C`, the GI50 is reported as 3.98 µM and the TGI is reported as 12.2 µM.
With `O=C(Nc1ccc(F)cc1)Nc1ccc(Cl)c([N+](=O)[O-])c1` the GI50 was 3.19 µM and the TGI was 12.5 µM.
In the case of `Fc1[nH]nc2ccc([C@@H]3Nc4ccc5[nH]ncc5c4[C@H]4C5CCC(C5)[C@@H]34)cc12` (stereo not given in full), the GI50 is reported as 1.02 µM and the TGI is reported as 13.5 µM.
With `Nc1ccccc1C#C/C=C\C#Cc1ccccc1OC(F)(F)F` the GI50 was 5.44 µM and the TGI was 22.2 µM.
Molecule `Cc1ccc(NC(=O)Nc2ccc(-c3cccnc3)cc2N2CCC(CO)CC2)cc1` has a GI50 of 2.02 µM and a TGI of 6.81 µM.
Work on `Cc1cnc(NCCCN(C)C)c2c1[nH]c1ccc3cc(O)ccc3c12` yielded a TGI of 1.02 µM.
With `Fc1ccc(NC(=S)SCc2ccc3c(c2)OCO3)cc1F` the TGI was 43.1 µM.
